Molecules are shown by their SMILES. Activity calls are given as the source filed them. How the calls were made is not given here.

The values that follow come from PubChem BioAssay AID1259407 (Chemical Carcinogenesis Research Information System (CCRIS), 2018).

The data set relates to CCRIS mutagenicity, Ames/micronucleus/aberration tests. In words: CCRIS mutagenicity studies.
Setting [1] is: Test System: AMES SALMONELLA TYPHIMURIUM, Strain/Indicator: TA97, Metabolic Activation: NONE, Method: PREINCUBATION
[2] abbreviates: Test System: AMES SALMONELLA TYPHIMURIUM, Strain/Indicator: TA98, Metabolic Activation: NONE, Method: STANDARD PLATE.
[3] abbreviates: Test System: AMES SALMONELLA TYPHIMURIUM, Strain/Indicator: TA98, Metabolic Activation: RAT, LIVER, S-9, AROCLOR 1254, Method: STANDARD PLATE.
Setting [4] is: Test System: AMES SALMONELLA TYPHIMURIUM, Strain/Indicator: TA100, Metabolic Activation: NONE, Method: STANDARD PLATE.
Setting [5] is: Test System: AMES SALMONELLA TYPHIMURIUM, Strain/Indicator: TA100, Metabolic Activation: RAT, LIVER, S-9, AROCLOR 1254, Method: STANDARD PLATE.
[6] abbreviates: Test System: AMES SALMONELLA TYPHIMURIUM, Strain/Indicator: TA1537, Metabolic Activation: NONE, Method: STANDARD PLATE.
Setting [7] is: Test System: AMES SALMONELLA TYPHIMURIUM, Strain/Indicator: TA1537, Metabolic Activation: RAT, LIVER, S-9, AROCLOR 1254, Method: STANDARD PLATE.
Setting [8] is: Test System: AMES SALMONELLA TYPHIMURIUM, Strain/Indicator: TA1538, Metabolic Activation: NONE, Method: STANDARD PLATE.
The mark [9] stands for this setting: Test System: AMES SALMONELLA TYPHIMURIUM, Strain/Indicator: TA1538, Metabolic Activation: RAT, LIVER, S-9, AROCLOR 1254, Method: STANDARD PLATE.

`OC[C@@H](O)[C@@H](O)[C@H](O)[C@H](O)CO`: the mutagenic call (End Point: IN VITRO CHROMOSOMAL ABERRATIONS, Test System: CHO CELLS, Metabolic Activation: NONE) was “inactive; negative”; the mutagenic call (End Point: IN VITRO CHROMOSOMAL ABERRATIONS, Test System: CHO CELLS, Metabolic Activation: RAT, LIVER, S-9, AROCLOR 1254) is “inactive; negative”; the mutagenic call under setting [1] was “inactive; negative”; the mutagenic call (Test System: AMES SALMONELLA TYPHIMURIUM, Strain/Indicator: TA97, Metabolic Activation: S-9, Method: PREINCUBATION) is “inactive; negative”; the mutagenic call under setting [2] is “inactive; negative”; the mutagenic call under setting [3] is “inactive; negative”. Besides, the mutagenic call reads like this: under setting [4], “inactive; negative”; under setting [5], “inactive; negative”; (Test System: AMES SALMONELLA TYPHIMURIUM, Strain/Indicator: TA102, Metabolic Activation: NONE, Method: PREINCUBATION) “inactive; negative”; (Test System: AMES SALMONELLA TYPHIMURIUM, Strain/Indicator: TA102, Metabolic Activation: S-9, Method: PREINCUBATION) “inactive; negative”; (Test System: AMES SALMONELLA TYPHIMURIUM, Strain/Indicator: TA1535, Metabolic Activation: NONE, Method: STANDARD PLATE) “inactive; negative”; (Test System: AMES SALMONELLA TYPHIMURIUM, Strain/Indicator: TA1535, Metabolic Activation: RAT, LIVER, S-9, AROCLOR 1254, Method: STANDARD PLATE) “inactive; negative”. Also, the mutagenic call under setting [6] was “inactive; negative”; the mutagenic call under setting [7] is “inactive; negative”; the mutagenic call under setting [8] was “inactive; negative”; the mutagenic call under setting [9] is “inactive; negative”; the mutagenic call (Test System: E. COLI, Strain/Indicator: WP2, Metabolic Activation: NONE, Method: STANDARD PLATE) was “inactive; negative”; the mutagenic call (Test System: E. COLI, Strain/Indicator: WP2, Metabolic Activation: RAT, LIVER, S-9, AROCLOR 1254, Method: STANDARD PLATE) is “inactive; negative”.
Turning to `Nc1c[n+](N2CCOCC2)no1`, the mutagenic call (Test System: E. COLI, Strain/Indicator: WP2 UVRA (PKM101), Metabolic Activation: NONE, Method: STANDARD PLATE) was “inactive; negative” and the mutagenic call (Test System: E. COLI, Strain/Indicator: WP2 UVRA/OXYR (PKM101), Metabolic Activation: NONE, Method: STANDARD PLATE) is “active; positive”.
Turning to `COc1cc(O)c2c(=O)c3c(O)ccc(O)c3oc2c1`, the mutagenic call is, setting by setting: under setting [1], “active; positive”; (Test System: AMES SALMONELLA TYPHIMURIUM, Strain/Indicator: TA97, Metabolic Activation: RAT, LIVER, S-9, PHENOBARBITAL AND 5,6-BENZOFLAVONE, Method: PREINCUBATION) “active; positive”; (Test System: AMES SALMONELLA TYPHIMURIUM, Strain/Indicator: TA98, Metabolic Activation: RAT, LIVER, S-9, PHENOBARBITAL AND 5,6-BENZOFLAVONE, Method: PREINCUBATION) “inactive; negative”; (Test System: AMES SALMONELLA TYPHIMURIUM, Strain/Indicator: TA100, Metabolic Activation: RAT, LIVER, S-9, PHENOBARBITAL AND 5,6-BENZOFLAVONE, Method: PREINCUBATION) “inactive; negative”; (Test System: AMES SALMONELLA TYPHIMURIUM, Strain/Indicator: TA2637, Metabolic Activation: RAT, LIVER, S-9, PHENOBARBITAL AND 5,6-BENZOFLAVONE, Method: PREINCUBATION) “active; positive”.
Turning to `O=C1c2ccccc2Cc2ccccc21`, the mutagenic call is “active; positive” under setting [2], “inactive; negative” under setting [4] and “inactive; negative” under setting [5].
As for `Nc1c(Br)cc([N+](=O)[O-])cc1[N+](=O)[O-]`, the mutagenic call reads like this: (Test System: AMES SALMONELLA TYPHIMURIUM, Strain/Indicator: TA98, Metabolic Activation: HAMSTER, LIVER, S-9, AROCLOR 1254 (10%), Method: PREINCUBATION) “active; positive”; (Test System: AMES SALMONELLA TYPHIMURIUM, Strain/Indicator: TA98, Metabolic Activation: HAMSTER, LIVER, S-9, AROCLOR 1254, Method: STANDARD PLATE) “active; positive”; (Test System: AMES SALMONELLA TYPHIMURIUM, Strain/Indicator: TA98, Metabolic Activation: NONE, Method: PREINCUBATION) “active; positive”; under setting [2], “active; positive”; (Test System: AMES SALMONELLA TYPHIMURIUM, Strain/Indicator: TA98, Metabolic Activation: RAT, LIVER, S-9, AROCLOR 1254 (10%), Method: PREINCUBATION) “active; positive”; under setting [3], “active; positive”. Also, the mutagenic call reads like this: (Test System: AMES SALMONELLA TYPHIMURIUM, Strain/Indicator: TA98, Metabolic Activation: RAT, LIVER, S-9, KANECHLOR 500, Method: PREINCUBATION) “active; positive”; (Test System: AMES SALMONELLA TYPHIMURIUM, Strain/Indicator: TA100, Metabolic Activation: HAMSTER, LIVER, S-9, AROCLOR 1254 (10%), Method: PREINCUBATION) “active; positive”; (Test System: AMES SALMONELLA TYPHIMURIUM, Strain/Indicator: TA100, Metabolic Activation: HAMSTER, LIVER, S-9, AROCLOR 1254, Method: STANDARD PLATE) “active; positive”; (Test System: AMES SALMONELLA TYPHIMURIUM, Strain/Indicator: TA100, Metabolic Activation: NONE, Method: PREINCUBATION) “active; positive”; under setting [4], “active; positive”; (Test System: AMES SALMONELLA TYPHIMURIUM, Strain/Indicator: TA100, Metabolic Activation: RAT, LIVER, S-9, AROCLOR 1254 (10%), Method: PREINCUBATION) “active; positive”. Further, the mutagenic call is “active; positive” under setting [5]; “active; positive” (Test System: AMES SALMONELLA TYPHIMURIUM, Strain/Indicator: TA100, Metabolic Activation: RAT, LIVER, S-9, KANECHLOR 500, Method: PREINCUBATION); “inactive; negative” (Test System: AMES SALMONELLA TYPHIMURIUM, Strain/Indicator: TA1535, Metabolic Activation: HAMSTER, LIVER, S-9, AROCLOR 1254 (10%), Method: PREINCUBATION); “inactive; negative” (Test System: AMES SALMONELLA TYPHIMURIUM, Strain/Indicator: TA1535, Metabolic Activation: NONE, Method: PREINCUBATION); “inactive; negative” (Test System: AMES SALMONELLA TYPHIMURIUM, Strain/Indicator: TA1535, Metabolic Activation: RAT, LIVER, S-9, AROCLOR 1254 (10%), Method: PREINCUBATION); “active; positive” (Test System: AMES SALMONELLA TYPHIMURIUM, Strain/Indicator: TA1537, Metabolic Activation: HAMSTER, LIVER, S-9, AROCLOR 1254 (10%), Method: PREINCUBATION). The mutagenic call by setting is: (Test System: AMES SALMONELLA TYPHIMURIUM, Strain/Indicator: TA1537, Metabolic Activation: HAMSTER, LIVER, S-9, AROCLOR 1254, Method: STANDARD PLATE) “active; positive”; (Test System: AMES SALMONELLA TYPHIMURIUM, Strain/Indicator: TA1537, Metabolic Activation: NONE, Method: PREINCUBATION) “active; positive”; under setting [6], “active; positive”; (Test System: AMES SALMONELLA TYPHIMURIUM, Strain/Indicator: TA1537, Metabolic Activation: RAT, LIVER, S-9, AROCLOR 1254 (10%), Method: PREINCUBATION) “active; positive”; under setting [7], “active; positive”; (Test System: AMES SALMONELLA TYPHIMURIUM, Strain/Indicator: TA1538, Metabolic Activation: HAMSTER, LIVER, S-9, AROCLOR 1254, Method: STANDARD PLATE) “active; positive”. Further, the mutagenic call was “active; positive” under setting [8]; “active; positive” under setting [9]; “active; positive. reevaluation of results: positive” (Test System: MOUSE LYMPHOMA, Strain/Indicator: L5178Y (TK+/TK-), Metabolic Activation: NONE, Method: SUSPENSION/PLATE); “active; positive. reevaluation of results: positive” (Test System: MOUSE LYMPHOMA, Strain/Indicator: L5178Y (TK+/TK-), Metabolic Activation: RAT, LIVER, S-9, AROCLOR 1254, Method: SUSPENSION/PLATE).
